The values that follow come from a melting point compilation (Tetko et al.).

In turn, `CC(=O)CC(=O)Nc1ccc(Br)cc1` had a melting point of 137 to 139 °C.

In the case of `O=C(Nc1cccc(O)c1)C1CC1`, the melting point lay within 184 to 186 °C.

On to `Cn1c(=O)oc2cc(C(=O)CCl)ccc21`, for which the melting point is 159 to 161 °C.

As to `O=C(O)c1cccc([N+](=O)[O-])c1Br`, the melting point fell in the range of 184 to 186 °C.

Consider `COc1ccc(-c2cc(C(=O)O)c3ccccc3n2)cc1OC`, for which the melting point fell in the range of 234 to 236 °C.

Compound `O=C1CC(C(=O)O)CN1` (stereo unspecified) had a melting point of 129 to 131 °C.

`O=Cc1ccc([N+](=O)[O-])cc1F` had a melting point of 84 to 86 °C.

Turning to `CCC(C)Oc1ccccc1C=CC(=O)O` (stereo unspecified), the melting point lay within 83 to 85 °C.

Consider `Cc1cc(C(=O)CCl)c(C)n1CCC(C)C`, for which the melting point lay within 55 to 57 °C.

For `O=C(O)c1ccc(N2CCc3ccccc3C2)cc1`, the melting point lay in the range of 209 to 211 °C.

For the compound `CC(C)(C)OC(=O)NC1C2CCC(C2)C1C(=O)O` (stereo unspecified), the melting point was in the range of 140 to 142 °C.

With `Nc1nc(CCl)nc2sc3c(c12)CCCC3`, the melting point was in the range of 174 to 176 °C.

For `O=C(O)c1ccccc1C(=O)c1cccs1`, the melting point was 141 to 143 °C.

Consider `CC(C)NC(=O)Nc1ccccc1N`, for which the melting point lay within 317 to 319 °C.

`CC(N)c1ccc(S(N)(=O)=O)cc1` (stereo unspecified): the melting point was in the range of 148 to 150 °C.

Take `Nc1nc2c(s1)COc1ccccc1-2`: the melting point was 190 to 192 °C.

Regarding `Cc1ccc(C)c(SCc2cccc(C(=O)O)c2)c1`, the melting point lay in the range of 129 to 131 °C.

In turn, `O=C(O)c1ccc(NS(=O)(=O)c2ccc(Br)s2)cc1` registered a melting point of 254 to 256 °C.

With `COc1ccc(NC(=O)OCC(F)(F)F)cn1`, the melting point fell in the range of 86 to 88 °C.

`O=C(O)COC1CCOCC1`: the melting point is 65 to 67 °C.

`Cc1ccc(S(=O)(=O)OCC2CCCO2)cc1` (stereo unspecified) had a melting point of 43 to 45 °C.

Turning to `O=C(O)CCCS(=O)(=O)N1CCCC1`, the melting point was 130 to 132 °C.

Consider `CC(C)(C)c1nn(Cc2ccccc2)cc1C=O`, for which the melting point fell in the range of 64 to 66 °C.

`Cc1nc([N+](=O)[O-])cn1CC(=O)O` registered a melting point of 244 to 246 °C.

`Cc1ccc(C)c(C(C)Nc2ccc(C(=O)O)cc2C)c1` (stereo unspecified) showed a melting point of 211 to 213 °C.

In turn, `O=c1ccnc(-c2cccc(O)c2)[nH]1` came in with a melting point of 229 to 231 °C.

`Nc1cccc(COc2ccc3c(c2)OCO3)c1` registered a melting point of 67 to 69 °C.

With `CSc1nc(NC(C)=O)n(C(C)=O)n1`, the melting point was in the range of 226 to 228 °C.

In turn, `Nc1c(F)cc(Br)cc1C(=O)O` gave a melting point of 214 to 216 °C.

On to `COc1ccc(C)cc1NC(=O)CCl`, for which the melting point is 73 to 75 °C.

The compound `Cc1c(NS(=O)(=O)c2ccc(Cl)c([N+](=O)[O-])c2)c(=O)n(-c2ccccc2)n1C` registered a melting point of 227 to 229 °C.

For the compound `CCCCc1ccc(C(=O)CCC(=O)O)cc1`, the melting point lay in the range of 113 to 115 °C.

`C=CCN1C(=O)c2ccc(C(=O)O)cc2C1=O` came in with a melting point of 154 to 156 °C.

`O=C(O)CNS(=O)(=O)c1c[nH]c2ncccc12` displayed a melting point of 273 to 275 °C.

For `O=C(CC1CCCC1)c1ccc(Oc2ccccc2)cc1`, the melting point fell in the range of 30 to 32 °C.

As for `Cc1ccc(S(C)(=O)=O)cc1S(=O)(=O)Cl`, the melting point is 136 to 138 °C.

Take `CC(C)NC(=O)c1cccc(CN)c1`: the melting point is 105 to 107 °C.

Compound `Nc1ccc(OCC(F)(F)F)c(C(=O)O)c1` had a melting point of 190 to 192 °C.

Consider `OCc1ccnc(-n2ccnc2)c1`, for which the melting point fell in the range of 155 to 157 °C.

`O=C(O)CNC(=O)c1cccc(Br)c1` yielded a melting point of 148 to 150 °C.

`O=c1c2cc(Cl)cc(Cl)c2nc2n1CCC2` gave a melting point of 245 to 247 °C.

Take `CC1CN(C(=O)c2ccccc2N)CC(C)O1` (stereo unspecified): the melting point was in the range of 119 to 121 °C.

Turning to `COc1ccc(Nc2ccccc2)cc1`, the melting point was 104 to 106 °C.

`O=C(c1cccnc1)c1ccc2c(c1)CCO2` displayed a melting point of 108 to 110 °C.

As to `CNC(=O)c1ccc(NC(=O)CCl)cc1`, the melting point lay within 206 to 208 °C.

Compound `Cc1cc(NC(=O)c2ccc(F)cc2Cl)sc1C(=O)O` gave a melting point of 207 to 209 °C.

`Sc1ccc(Cl)nn1` returned a melting point of 148 to 150 °C.

With `CNC(=O)NCC(=O)O`, the melting point is 138 to 140 °C.

`CNC(=O)COc1ccc(CC(=O)O)cc1`: the melting point lay within 143 to 145 °C.

Turning to `O=C(O)c1ccc(-c2ccccc2)o1`, the melting point was 153 to 155 °C.

Consider `CC(C)c1ccccc1OCCC(=O)O`, for which the melting point lay in the range of 84 to 86 °C.

`Cc1sc2[nH]c(=O)oc(=O)c2c1C` registered a melting point of 199 to 201 °C.

The compound `CN(C)S(=O)(=O)c1ccc(F)c(N)c1` returned a melting point of 104 to 106 °C.

`N#CCc1nc(-c2ccc(C#N)cc2)cs1`: the melting point lay within 177 to 179 °C.

As to `CC(O)C(NS(=O)(=O)c1ccc(Cl)cc1)C(=O)O` (stereo unspecified), the melting point lay in the range of 179 to 181 °C.

`O=C(O)c1ccc2nc(S)oc2c1`: the melting point lay within 295 to 297 °C.

`CC1CCC(CC(=O)O)CC1` (stereo unspecified) came in with a melting point of 58 to 60 °C.

As to `CNc1cc(Cl)nc(C)n1`, the melting point is 143 to 145 °C.

`CC(C)(C)OC(=O)N1CCN(c2ccc(N)nc2)CC1` displayed a melting point of 131 to 133 °C.

The compound `O=C(Cc1ccccc1Cl)c1ccccc1` registered a melting point of 68 to 70 °C.

`CC(C)c1ccc(C2CC2C(=O)O)cc1` (stereo unspecified) registered a melting point of 67 to 69 °C.

Take `CC1(C)OC(=O)C(C(=O)C2CCCC2)C(=O)O1`: the melting point was 63 to 65 °C.

Compound `O=C(O)C1CC(=O)N(CCN2CCOCC2)C1` (stereo unspecified) yielded a melting point of 159 to 161 °C.

In turn, `CC(C)NS(=O)(=O)Cc1ccc(CN)cc1` displayed a melting point of 148 to 150 °C.

Compound `N#Cc1ccc(Oc2ccccc2O)c(F)c1` registered a melting point of 97 to 99 °C.

`Sc1nnc(CCc2ccccc2)o1` came in with a melting point of 92 to 94 °C.

Compound `Nc1ccccc1N1CCCC1=O` had a melting point of 98 to 102 °C.

On to `O=C(O)CCCCCc1ccc(O)cc1`, for which the melting point was 104 to 106 °C.

`O=C1Nc2cc(F)cc(F)c2C1=O` came in with a melting point of 229 to 231 °C.

Turning to `O=C1CC2(CCCC2)Oc2ccccc21`, the melting point lay within 35 to 37 °C.

The compound `Cc1nc2ccccc2c(=O)n1-c1ccc(F)cc1` returned a melting point of 134 to 136 °C.

Regarding `CS(=O)(=O)CC(O)c1ccccc1` (stereo unspecified), the melting point fell in the range of 103 to 105 °C.

The compound `COC(=O)Cc1cc(=O)[nH]c(S)n1` displayed a melting point of 185 to 187 °C.

`O=C(O)c1cc(CO)on1` returned a melting point of 129 to 131 °C.

For the compound `N#CC1(N2CCNCC2)CCCCC1`, the melting point is 82 to 84 °C.

Turning to `CN1CCC(=O)Nc2cc(F)ccc21`, the melting point was in the range of 143 to 145 °C.

With `Cn1c(Cl)nc2c1c(=O)[nH]c(=O)n2C`, the melting point was 299 to 301 °C.

The compound `O=C(O)COc1cccc(Br)c1` showed a melting point of 108 to 110 °C.

As for `Cc1cccc2c(CC#N)c[nH]c12`, the melting point lay within 109 to 111 °C.

Take `NC(CSCc1cccc2ccccc12)C(=O)O` (stereo unspecified): the melting point was 199 to 201 °C.

In turn, `O=C(O)CCCc1ccc2c(c1)-c1ccccc1C2` registered a melting point of 151 to 153 °C.

In the case of `CC(NC(=O)c1cccc(Cl)c1Cl)C(=O)O` (stereo unspecified), the melting point lay in the range of 152 to 154 °C.

`O=[N+]([O-])C=Cc1ccc(SC(F)(F)F)cc1` gave a melting point of 136 to 138 °C.

In the case of `NC(=O)c1ccn(-c2ccccc2N)n1`, the melting point is 161 to 163 °C.

`COC(=O)c1cn(CCCC#N)nn1` had a melting point of 75 to 77 °C.

For `COc1ccc2c(c1)OCC(C(=O)O)=C2`, the melting point was in the range of 201 to 203 °C.
